IC50 and EC50 data for twelve compounds are collected here from US20150274777A1, “KETOAMIDE IMMUNOPROTEASOME INHIBITORS” (HOFFMANN-LA ROCHE INC., priority 2012, published 2015).

One assay has as its target T1, β5i (Homo sapiens, UniProt P20618+P28062).
T1 construct: protease activity associated with the proteasome complex in cultured cells; endogenous in cells; host or cells: Ramos cells
The assay can be described thus: Cell-Based Proteasome Activity/Selectivity Assay (Ramos cells), substrate (ANW)2Rh110. The note with it: highest concentration tested 20 μM, read-out: Ic50 ramos:ac-(anw)2-r110. The text has this:
(§1) Cell-Based Proteasome Activity/Selectivity Assay
(§2) The Cell-Based Proteasome subunit activity/selectivity assay was a panel of 5 fluorogenic assays that independently measured the activity of β5c or β5i (chymotrypsin-like activity), β2c/2i (trypsin-like), and β1c or β1i (caspase-like) protease activity associated with the proteasome complex in cultured cells. Specifically, the following substrates were used for respective subunit activities: β1i: (PAL)2Rh110, β1c: (LLE)2 Rh110, β2c/2i: (KQL)2Rh110, β5c: (WLA)2Rh110, β5i: (ANW)2Rh110. The following procedure was followed:
(§3) Cell preparation: Plated 25 μl of Ramos cells (2×10^6/ml in DPBS) into half area plate (PerkinElmer Cat 6005569) to final 5×10^4 cells/well. Added 0.5 μl of 100×4-fold serial diluted test compounds or DMSO to each well. Highest concentration of compound tested was 20 μM, thus compound serial dilution started from […]. Incubated for 30 minutes at 37° C. Then equilibrated at room temperature for 15 minutes. Added 25 μl of 2× reaction mix consisting of 0.025% digitonin, 20 μM of each substrates and 0.5M sucrose in DPBS. Shaked for one minute @ 700 rpm. Incubated for 120 min at room temperature. Then read the plates with an Envision multilabel plate reader (PerkinElmer) with 500 nm excitation/519 nm emission.

A further assay concerns the target T2, β5c (Homo sapiens, UniProt P20618+P28074).
T2 construct: protease activity associated with the proteasome complex in cultured cells; endogenous in cells; host or cells: Ramos cells
The assay can be described thus: Cell-Based Proteasome Activity/Selectivity Assay (Ramos cells), substrate (WLA)2Rh110. The note with it: highest concentration tested 20 μM.
Description: as §1, §2, §3

For another assay, the system named is β2c/2i. The assay can be described thus: Cell-Based Proteasome Activity/Selectivity Assay (Ramos cells), substrate (KQL)2Rh110. As to conditions: highest concentration tested 20 μM.
Description: as §1, §2, §3

In the next assay the target is T3, β1i (Homo sapiens, UniProt P28065+P40306).
T3 construct: protease activity associated with the proteasome complex in cultured cells; endogenous in cells; host or cells: Ramos cells
The assay can be described thus: Cell-Based Proteasome Activity/Selectivity Assay (Ramos cells), substrate (PAL)2Rh110. The note with it: highest concentration tested 20 μM.
Description: as §1, §2, §3

A further assay has as its target T4, β1c (Homo sapiens, UniProt P28072+Q99436).
T4 construct: protease activity associated with the proteasome complex in cultured cells; endogenous in cells; host or cells: Ramos cells
The assay can be described thus: Cell-Based Proteasome Activity/Selectivity Assay (Ramos cells), substrate (LLE)2 Rh110. As to conditions: highest concentration tested 20 μM.
Description: as §1, §2, §3

The subject of assay [1] is IP10 level in PBMCs stimulated with CpG Type A. The assay can be described thus: PBMC IP-10 Assay. Type of assay: cell-based. The note with it: CpG Type A 2.5 μM. The protocol: PBMCs were isolated from whole blood as follows: Blood was collected in a sterile environment in heparinized tubes. Blood was diluted with an equal volume PBS/2% FCS and 30 ml of this mixture was added to ACCUSPIN tubes containing 15 ml Histopaque-1077 already centrifuged at 800 g for 30 seconds and warmed up at room temperature. The tubes were then centrifuged at 800 g for 20 minutes at room temperature with no brake. The mononuclear band, just above the polyethylene frit, was removed by Pasteur pipet. These mononuclear cells were washed three times with sterile PBS, counted, and resuspended in RPMI 1640 supplemented with 10% heat inactivated fetal calf serum, 10 mM HEPES, 1 mM sodium pyruvate, penicillin (50 U/ml), streptomycin (50 μg/ml) and glutamine (2 mM) to approximately 1.5×10^6/ml. Approximately 2×10^5 cells/well were plated in 96 well tissue culture plates (BD Falcon 353072), and preincubated 60 mi/37° C. with a titration of compounds, in a final concentration of 1% DMSO. Cells were then stimulated with CpG Type A (Invivogen, Cat #tlrl-2216; ODN 2216) at a final concentration of 2.5 μM. Cells were incubated overnight, and supernatants were removed. PBMC viability of cells remaining in the well was measured with ATPlite luminescence assay (Perkin-Elmer) per the manufacturer's instructions. Luminescence was measured on the Perkin-Elmer Envision, using the luminescence filter. IP10 level was measured with CXCL10/IP10 AlphaLISA kit (Perkin-Elmer) per the manufacturer's instructions, except halving all volumes. Fluorescence was measured on the Envision Multilabel plate reader, using the AlphaScreen standard settings.

As a reminder, the IC50 is the concentration needed to halve the response being measured. Usually EC50 stands for the concentration at which the effect is half-maximal. Low readings indicate higher potency in that assay, high ones lower potency in that assay. Consider `COc1ccc(C[C@H](NC(=O)[C@H](C)NC(=O)OCc2ccccc2)C(=O)N[C@@H](Cc2ccccc2)C(=O)C(=O)NCc2ccccc2)cc1` [Example 17, {(S)-1-[(S)-1-((S)-1-Benzyl-2-benzylcarbamoyl-2-oxo-ethylcarbamoyl)-2-(4-methoxy-phenyl)-ethylcarbamoyl]-ethyl}-carbamic acid benzyl ester], for which the IC50 is 7 nM on β5i; 988 nM at β5c; more than 20000 nM with β2c/2i; 417 nM against β1i; more than 20000 nM on β1c. The compound also had an EC50 in assay [1] of 939 nM.
For the compound `COc1ccc(C[C@H](NC(=O)[C@H](C)NC(=O)c2cn3ccccc3n2)C(=O)N[C@@H](Cc2ccccc2)C(=O)C(=O)NCc2ccccc2)cc1` [Example 49, Imidazo[1,2-a]pyridine-2-carboxylic acid {(S)-1-[(S)-1-((S)-1-benzyl-2-benzylcarbamoyl-2-oxo-ethylcarbamoyl)-2-(4-methoxy-phenyl)-ethylcarbamoyl]-ethyl}-amide], the IC50 on β5i was 105 nM; on β5c it was 1930 nM; with β2c/2i it was more than 20000 nM; at β1i, 499 nM; against β1c it was 17500 nM. Further, the EC50 in assay [1] worked out at 4370 nM.
Turning to `CCCCC(NC(=O)[C@H](COC)NC(=O)[C@H](C)NC(=O)c1cc(C)on1)C(=O)C(=O)NCc1ccccc1` (mixture of isomers) [Example 6, 5-Methyl-isoxazole-3-carboxylic acid {(S)-1-[(S)-1-((S)-1-benzylaminooxalyl-pentylcarbamoyl)-2-methoxy-ethylcarbamoyl]-ethyl}-amide], the IC50 at β5i is 1040 nM; at β5c it was 5520 nM; in the assay on β2c/2i, more than 20000 nM; at β1i it was 949 nM; on β1c, more than 20000 nM. A half-maximal response in assay [1] (EC50) required 13600 nM.
For the compound `CC(C)C[C@H](NC(=O)[C@H](C)NC(=O)c1ccnn1C)C(=O)N[C@@H](Cc1ccccc1)C(=O)C(=O)NCc1ccccc1` [Example 37, 2-Methyl-2H-pyrazole-3-carboxylic acid {(S)-1-[(S)-1-((S)-1-benzyl-2-benzylcarbamoyl-2-oxo-ethylcarbamoyl)-3-methyl-butylcarbamoyl]-ethyl}-amide], the IC50 is 234 nM on β5i; 4440 nM against β5c; more than 20000 nM in the assay on β2c/2i; 1080 nM against β1i; more than 20000 nM against β1c. The EC50 in assay [1] was 5100 nM.
Turning to `C[C@H](NC(=O)OCc1ccccc1)C(=O)N[C@@H](Cc1c[nH]c2ccccc12)C(=O)N[C@@H](Cc1ccccc1)C(=O)C(=O)NCc1ccccn1` [Example 34, {(S)-1-[(S)-1-{(S)-1-Benzyl-2-oxo-2-[(pyridin-2-ylmethyl)-carbamoyl]-ethylcarbamoyl}-2-(1H-indol-3-yl)-ethylcarbamoyl]-ethyl}-carbamic acid benzyl ester], the IC50 on β5i is 10 nM; on β5c, 1090 nM; in the assay on β2c/2i it was more than 20000 nM; at β1i, 589 nM; at β1c it was 13500 nM. This compound gave an EC50 in assay [1] of 1160 nM.
As to `C[C@H](NC(=O)c1ccnn1C)C(=O)N[C@@H](Cc1c[nH]c2ccccc12)C(=O)N[C@@H](Cc1ccccc1)C(=O)C(=O)NCc1ccccc1` [Example 30, 2-Methyl-2H-pyrazole-3-carboxylic acid {(S)-1-[(S)-1-((S)-1-benzyl-2-benzylcarbamoyl-2-oxo-ethylcarbamoyl)-2-(1H-indol-3-yl)-ethylcarbamoyl]-ethyl}-amide], the IC50 worked out at 47 nM on β5i; 2480 nM on β5c; 10000 nM in the assay with β2c/2i; 569 nM against β1i; 12500 nM against β1c. The compound also displayed an EC50 in assay [1] of 4090 nM.
For the compound `C[C@H](NC(=O)OCc1ccccc1)C(=O)N[C@@H](Cc1c[nH]c2ccccc12)C(=O)N[C@@H](Cc1ccccc1)C(=O)C(=O)N(C)Cc1ccccc1` [Example 38, {(S)-1-[(S)-1-[(S)-1-Benzyl-2-(benzyl-methyl-carbamoyl)-2-oxo-ethylcarbamoyl]-2-(1H-indol-3-yl)-ethylcarbamoyl]-ethyl}-carbamic acid benzyl ester], the IC50 on β5i is 1210 nM; against β5c, 4110 nM; in the assay on β2c/2i it was more than 20000 nM; at β1i, more than 20000 nM; against β1c it was more than 20000 nM. This compound also displayed an EC50 in assay [1] of 10100 nM.
As to `CCCC[C@H](NC(=O)[C@H](Cc1c[nH]c2ccccc12)NC(=O)[C@H](C)NC(=O)c1cc(C)on1)C(=O)C(=O)NCc1ccccc1` [Example 4, 5-Methyl-isoxazole-3-carboxylic acid {(S)-1-[(S)-1-((S)-1-benzylaminooxalyl-pentylcarbamoyl)-2-(1H-indol-3-yl)-ethylcarbamoyl]-ethyl}-amide], the IC50 was 83 nM on β5i; 763 nM against β5c; more than 20000 nM with β2c/2i; 91 nM on β1i; 5700 nM against β1c. A half-maximal response in assay [1] (EC50) required 3910 nM.
`C[C@H](NC(=O)OCc1ccccc1)C(=O)NC(CC(F)(F)F)C(=O)N[C@@H](Cc1ccccc1)C(=O)C(=O)NCc1ccccc1` (stereo partly drawn) [Example 57, {(S)-1-[1-((S)-1-Benzyl-2-benzylcarbamoyl-2-oxo-ethylcarbamoyl)-3,3,3-trifluoro-propylcarbamoyl]-ethyl}-carbamic acid benzyl ester]: the IC50 was 524 nM at β5i; 6160 nM at β5c; more than 20000 nM with β2c/2i; 2730 nM on β1i; more than 20000 nM against β1c. Further, in assay [1], the EC50 was found to be 5030 nM.
Turning to `COc1ccc(C[C@H](NC(=O)[C@H](C)NC(=O)CN2CCOc3ccccc32)C(=O)N[C@@H](Cc2ccccc2)C(=O)C(=O)NCc2ccccc2)cc1` [Example 35, (S)—N-Benzyl-3-[(S)-2-[(S)-2-(2-2,3-dihydro-benzo[1,4]oxazin-4-yl-acetylamino)-propionylamino]-3-(4-methoxy-phenyl)-propionylamino]-2-oxo-4-phenyl-butyramide], the IC50 is 4 nM on β5i; 261 nM against β5c; more than 20000 nM with β2c/2i; 395 nM on β1i; 13400 nM at β1c. In assay [1], this compound showed an EC50 of 615 nM.
Regarding `COc1ccc(C[C@H](NC(=O)[C@H](C)NC(=O)c2cc(C)on2)C(=O)N[C@@H](Cc2ccccc2)C(=O)C(=O)NCc2ccccc2)cc1` [Example 21, 5-Methyl-isoxazole-3-carboxylic acid {(S)-1-[(S)-1-((S)-1-benzyl-2-benzylcarbamoyl-2-oxo-ethylcarbamoyl)-2-(4-methoxy-phenyl)-ethylcarbamoyl]-ethyl}-amide], the IC50 at β5i is 7 nM; on β5c, 765 nM; in the assay with β2c/2i, more than 20000 nM; on β1i, 210 nM; on β1c it was more than 20000 nM. Besides, in assay [1], a half-maximal effect (EC50) was put at 3490 nM.
Turning to `COC[C@H](NC(=O)C1Cc2ccccc2C1)C(=O)N[C@@H](Cc1ccc(OC)cc1)C(=O)N[C@@H](Cc1ccccc1)C(=O)C(=O)NCc1ccccc1` [Example 23, Indan-2-carboxylic acid {(S)-1-[(S)-1-((S)-1-benzyl-2-benzylcarbamoyl-2-oxo-ethylcarbamoyl)-2-(4-methoxy-phenyl)-ethylcarbamoyl]-2-methoxy-ethyl}-amide], the IC50 at β5i is 1 nM; against β5c, 5 nM; in the assay on β2c/2i, more than 20000 nM; at β1i, 97 nM; against β1c, 7320 nM. This compound also displayed an EC50 in assay [1] of 356 nM.
